In patent US9969749B2, “Inhibitors of IRAK4 activity” (MERCK SHARP & DOHME CORP., priority 2014, dated 2018) one finds IC50 data, which are given here for 14 molecules.

Each structure is given as a SMILES string.

IRAK4, sequence (Q9NWZ3 whole entry): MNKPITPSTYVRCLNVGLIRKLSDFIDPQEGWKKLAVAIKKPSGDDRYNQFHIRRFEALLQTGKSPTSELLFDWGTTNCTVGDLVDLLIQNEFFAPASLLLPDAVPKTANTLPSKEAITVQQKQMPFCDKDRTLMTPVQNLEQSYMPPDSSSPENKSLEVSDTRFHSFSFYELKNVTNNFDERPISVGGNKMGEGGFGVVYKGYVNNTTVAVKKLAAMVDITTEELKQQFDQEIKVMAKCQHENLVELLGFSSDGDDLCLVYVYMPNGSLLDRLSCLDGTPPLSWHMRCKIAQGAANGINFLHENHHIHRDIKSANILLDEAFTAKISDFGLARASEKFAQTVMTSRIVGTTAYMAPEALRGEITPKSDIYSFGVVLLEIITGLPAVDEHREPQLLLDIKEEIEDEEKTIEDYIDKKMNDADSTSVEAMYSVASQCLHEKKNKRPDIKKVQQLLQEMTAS

This experiment concerns the target IRAK4 (Homo sapiens (Human), UniProt Q9NWZ3). As to the kind of experiment: IRAK4 Kinase Assay (IMAP fluorescence polarization). In kind it is biochemical. The conditions noted are these: 0.5 nM GST tagged IRAK4, 100 μM ATP, 100 nM fluorescent peptide substrate RP7030, 30 minutes at 25° C. As to the method:
The kinase activity of IRAK4 is determined by its ability to catalyze the phosphorylation of a fluorescent polypeptide substrate. The extent of phosphorylation is measured using the IMAP technology (Molecular Devices) where the phosphorylated fluorescent substrate binds to the large M(III)-based nanoparticles which reduces the rotational speed of the substrate and thus increases its fluorescent polarization (FP).
20 μL reaction mixture contains 10 mM TriHCl, pH 7.2, 0.5 nM GST tagged IRAK4 (SignalChem), 100 nM fluorescent peptide substrate (RP7030, Molecular Devices), 100 μM ATP, 1 mM DDT, 1 mM MgCl2, and 0.01% Tween 20. The reaction is initiated by the addition of ATP. After incubation for 30 minutes at 25° C., 60 μL of Progressive IMAP Reagent (Molecular Devices) is added to stop the reaction. Change in RP7030's FP is determined by a FP reader (Analyst HT, LJL BioSystems).
Background: In fluorescence polarisation assays a small probe gives low polarisation when free and higher when bound to something large.
In the case of `CN(C)C1CCC(Nc2ncnc3ccc(-c4ccccc4)cc23)CC1` (single isomer, unassigned) [Example 1-2, cis or trans-N,N-dimethyl-N′-(6-phenylquinazolin-4-yl)cyclohexane-1,4-diamine], half-maximal inhibition (IC50) required 3160 nM.
As for `CN(C)C1CCC(Nc2ncnc3ccc(-c4ccncc4)cc23)CC1` (single isomer, unassigned) [Example 1-3, cis or trans-N,N-dimethyl-N′-[6-(pyridin-4-yl)quinazolin-4-yl]cyclohexane-1,4-diamine], the IC50 stood at 2290 nM.
To `CN(C)C1CCC(Nc2ncnc3ccc(-c4cccnc4)cc23)CC1` (single isomer, unassigned) [Example 1-4, cis or trans-N,N-dimethyl-N′-[6-(pyridin-3-yl)quinazolin-4-yl]cyclohexane-1,4-diamine] belongs 1610 nM; to `CN(C)C1CCC(Nc2ncnc3ccc(-c4ccccc4)cc23)CC1` (single isomer, unassigned) [Example 1-5, cis or trans-N,N-dimethyl-N′-(6-phenylquinazolin-4-yl)cyclohexane-1,4-diamine], 19 nM; to `CN(C)C1CCC(Nc2ncnc3ccc(-c4ccncc4)cc23)CC1` (single isomer, unassigned) [Example 1-6, cis or trans-N,N-dimethyl-N′-[6-(pyridin-4-yl)quinazolin-4-yl]cyclohexane-1,4-diamine], 11 nM.
To `CN(C)C1CCC(Nc2ncnc3ccc(-c4cccnc4)cc23)CC1` (single isomer, unassigned) [Example 1-7, cis or trans-N,N-dimethyl-N′-[6-(pyridin-3-yl)quinazolin-4-yl]cyclohexane-1,4-diamine] belongs 13 nM; to `Cc1cc(-c2ccc3ncnc(N[C@H]4CC[C@H](N(C)C)CC4)c3c2)cnn1` [Example 1-1, Trans-N,N-dimethyl-N′-[6-(6-methylpyridazin-4-yl)quinazolin-4-yl]cyclohexane-1,4-diamine], 27 nM.
To `COc1cc(-c2ccc3ncnc(N[C@H]4CC[C@H](N(C)C)CC4)c3c2)ccn1` [Example 1-8, trans-N′-[6-(2-methoxypyridin-4-yl)quinazolin-4-yl]-N,N-dimethylcyclohexane-1,4-diamine] belongs 25 nM; to `Cn1cc(-c2ccc3ncnc(N[C@H]4CC[C@H](N(C)C)CC4)c3c2)cn1` [Example 1-9, trans-N,N-dimethyl-N′-[6-(1-methyl-1H-pyrazol-4-yl)quinazolin-4-yl]cyclohexane-1,4-diamine], 5 nM; to `CN(C)C1CCC(Nc2ncnc3ccc(-c4cn[nH]c4)cc23)CC1` (stereo not drawn) [Example 1-10, cis or trans-N,N-dimethyl-N′-[6-(1H-pyrazol-4-yl)quinazolin-4-yl]cyclohexane-1,4-diamine], 1 nM.
Consider `CN(C)C1CCC(Nc2ncnc3ccc(-c4ccc(N)nc4)cc23)CC1` (stereo not drawn) [Example 1-11, cis or trans-N′-[6-(6-aminopyridin-3-yl)quinazolin-4-yl]-N,N-dimethylcyclohexane-1,4-diamine], for which inhibition was half-maximal at 36 nM (IC50).
The result for `CN(C)[C@H]1CC[C@H](Nc2ncnc3ccc(-c4cc[nH]n4)cc23)CC1` [Example 1-12, trans-N,N-dimethyl-N′-[6-(1H-pyrazol-3-yl)quinazolin-4-yl]cyclohexane-1,4-diamine] reads 17 nM.
The result for `CNc1ncc(-c2ccc3ncnc(N[C@H]4CC[C@H](N(C)C)CC4)c3c2)cn1` [Example 1-13, trans-N,N-dimethyl-N′-{6-[2-(methylamino)pyrimidin-5-yl]quinazolin-4-yl}cyclohexane-1,4-diamine] reads 28 nM; that for `CCOC(C)n1cc(-c2ccc3ncnc(N[C@H]4CC[C@H](N(C)C)CC4)c3c2)cn1` (stereo partly drawn) [Example 1-14, trans-N′-{6-[1-(1-ethoxyethyl)-1H-pyrazol-4-yl]quinazolin-4-yl}-N,N-dimethylcyclohexane-1,4-diamine], 1360 nM.

Broadly, the IC50 is the midpoint of a concentration-inhibition curve. A higher IC50 goes with lower potency.
